Experiments:
[1] = molecular target: glyceraldehyde-3-phosphate dehydrogenase (GAPDH) (Homo sapiens, UniProt P04406); settings: reported in J. Biol. Chem. 273:5821-5828; cited from earlier work
[2] = test system: homozygous dy^W/dy^W mice deficient in laminin-α2 expression; assay: Skeletal muscle apoptosis (TUNEL) in Triceps muscle (FIG. 3); format: in vivo, mouse; settings: dy^W/dy^W mice at 6 weeks of age, 0.1 mg/kg
Method: The effect of N-(dibenz(b,f)oxepin-10-ylmethyl)-N-methyl-N-prop-2-ynylammonium maleate (omigapil) on skeletal muscle apoptosis was tested in a mouse model for MDC1A deficient in laminin-α2 expression. Starting at day fifteen, homozygous dy^W/dy^W mice were treated with omigapil. The number of apoptotic myonuclei were analyzed and compared to the number of apoptotic myonuclei determined in homozygous dy^W/dy^W mice treated with vehicle only and to the number of apoptotic myonuclei determined in untreated wild-type mice. For this, omigapil was given to dy^W/dy^W-mice at a dose of 0.1 mg/kg body weight according to the treatment regime described in example 1. […]
Newborn dy^W/dy^W mice were genotyped and randomly assigned to the vehicle or omigapil group. The apoptotic myonuclei in the Triceps foreleg muscle were determined by counting muscle fibers positively stained for Terminal dUTP nick end labeling (TUNEL). […] The relative number of apoptotic myofibres was calculated by dividing the number of TUNEL positive myonuclei by the total number of myofibres. 7 animals were analyzed per treatment group. 1.1% of the myofibers in the Triceps muscle of the vehicle-treated dy^W/dy^W mice had apoptotic myonuclei at 6 weeks of age while only 0.7% apoptotic myofibres were detected in the omigapil-treated group. […]

[3] = test system: homozygous dy^W/dy^W mice deficient in laminin-α2 expression; assay: Skeletal deformation (kyphosis) by X-ray analysis and visual scoring (FIG. 5); format: in vivo, mouse; settings: dy^W/dy^W mice at 11 weeks of age, 1 mg/kg; example animal; vehicle 66°
Method: The beneficial and therapeutically relevant effect of N-(dibenz(b,f)oxepin-10-ylmethyl)-N-methyl-N-prop-2-ynylammonium maleate (omigapil) on the skeletal deformation (i.e. kyphosis) was tested in a mouse model for MDC1A deficient in laminin-α2 expression. For this, homozygous dy^W/dy^W mice were treated with omigapil (at a dose of 1 mg/kg body weight) and their kyphosis was scored at 11 weeks of age by visual inspection and X-ray analysis and compared to the extent of kyphosis seen in homozygous dy^W/dy^W mice treated with vehicle only and untreated wildtype mice. The treatment regime was as described in example 1.
Spinal deformation was documented by X-ray pictures of an age-matched wild-type mouse (A), a vehicle-treated (B) and an 1 mg/kg omigapil-treated dy^W/dy^W mouse (C). The kyphosis was quantified in living animals using a visual scoring system (1: barely detectable, 2: mild, 3: moderate, 4: severe) (D). 9 vehicle- and 7 omigapil-treated animals were analyzed.

[4] = test system: homozygous dy^W/dy^W mice deficient in laminin-α2 expression; assay: Muscle fiber size distribution in Triceps muscle (FIG. 4); format: in vivo, mouse; settings: dy^W/dy^W mice at 6 weeks of age, 0.1 mg/kg; vehicle 8%; p-value<0.05
Method: The effect of N-(dibenz(b,f)oxepin-10-ylmethyl)-N-methyl-N-prop-2-ynylammonium maleate (omigapil) on muscle fiber size distribution was tested in a mouse model for MDC1A deficient in laminin-α2 expression. Muscle fiber diameters were analyzed in Triceps muscle of 6 weeks old dy^W/dy^W mice treated with 0.1 mg/kg body weight omigapil or with vehicle only. The treatment regime was as described in example 1.
It can be concluded from this increase in large diameter myofibers that omigapil improves muscle histology in an animal model for muscular dystrophy caused by laminin α2-deficiency.
Newborn dy^W/dy^W mice were genotyped and randomly assigned to the vehicle or omigapil group. The myofiber diameters were measured following methods known to the skilled artist (Briguet, A., Courdier-Fruh, I., Foster, M., Meier, T., Magyar, J. P. (2004)—“Histological parameters for the quantitative assessment of muscular dystrophy in the mdx-mouse”, Neuromuscul Disord 14(10): 675-82). For each muscle all muscle fibers of one cross section were included into the analysis. 7 animals were analyzed per treatment group. 8% of the myofibers in the Triceps muscle of the vehicle-treated dy^W/dy^W mice had muscle diameters above 50 micrometers at 6 weeks of age while 15% of myofibres in the omigapil-treated group fulfilled this criteria. Asterisk: p-value<0.05.

[5] = test system: homozygous dy^W/dy^W mice deficient in laminin-α2 expression; assay: Voluntary exploratory locomotory activity in a new cage (FIG. 6); format: in vivo, mouse; settings: dy^W/dy^W mice at 6 weeks of age; for locomotory activity in the 10-minute test period: vehicle 236 seconds, p-value<0.05
Method: The therapeutically relevant effect of N-(dibenz(b,f)oxepin-10-ylmethyl)-N-methyl-N-prop-2-ynylammonium maleate (omigapil) on the voluntary locomotion was tested in a mouse model for MDC1A deficient in laminin-α2 expression. Starting at day fifteen, homozygous dy^W/dy^W mice were treated with omigapil at doses of 0.1 or 1 mg/kg body weight. Their individual exploratory locomotory activity was assessed at 6 weeks of age and compared to age-matched dy^W/dy^W mice treated with vehicle only. The treatment regime was as described in example 1.
It can be concluded that omigapil increases locomotory activity in an animal model for muscular dystrophy caused by laminin α2-deficiency.
Newborn dy^W/dy^W mice were genotyped and randomly assigned to the vehicle or the 0.1 and 1 mg/kg omigapil groups. The voluntary locomotory activity was measured within the first 10 minutes after having placed the animal in a new cage. […] The difference in activity is statistically significant for both omigapil treatments (asterisk: p-value<0.05). In total 13, 15 and 10 animals were included into the vehicle, the 0.1 and the 1 mg/kg omigapil group, respectively.

[6] = test system: homozygous dy^W/dy^W mice deficient in laminin-α2 expression; assay: Survival rate in mouse model for MDC1A (Kaplan-Meier, FIG. 1); format: in vivo; settings: 0.1 mg/kg once daily (i.p., then gavage from 4th week), 1 out of 13 animals, vehicle 6 out of 15 (=40%)
Method: The effect of N-(dibenz(b,f)oxepin-10-ylmethyl)-N-methyl-N-prop-2-ynylammonium maleate (omigapil) on the survival rate was tested in a mouse model for MDC1A deficient in laminin-α2 expression. Starting at day fifteen, homozygous dy^W/dy^W mice were treated with omigapil. Their survival rate was compared to homozygous dy^W/dy^W mice treated with vehicle only. For this, omigapil was dissolved in 0.5% w/v ethanol to a final concentration of 20 μg/ml. The treatment regime was as follows: omigapil (20 μg/ml in 0.5% ethanol) was applied to 3 week old dy^W/dy^W-mice by intraperitoneal (i.p.) injection once per day; from the 4th week of age onwards mice received the same concentration of omigapil once per day by gavage feeding instead of i.p. application. The final dose of omigapil given to dy^W/dy^W-mice at all times was 0.1 mg/kg body weight, once daily following the guidance as described elsewhere (Sagot Y. et al. (2000)—An orally active anti-apoptotic molecule (CGP 3466B) preserves mitochondria and enhances survival in an animal model of motoneuron disease. Br. J. Pharmacol. 131:721-728). Control mice received the equivalent amount of vehicle only. […]

[7] = test system: homozygous dy^W/dy^W mice deficient in laminin-α2 expression; assay: Body weight gain in mouse model for MDC1A (FIG. 2); format: in vivo; settings: vehicle maximally 11%
Method: Example 2 describes the therapeutically relevant effect of N-(dibenz(b,f)oxepin-10-ylmethyl)-N-methyl-N-prop-2-ynylammonium maleate (omigapil) on the body weight gain in a mouse model for MDC1A deficient in laminin-α2 expression. Starting at day fifteen, homozygous dy^W/dy^W mice were treated with omigapil. Their individual body weights were assessed daily and compared to homozygous dy^W/dy^W mice treated with vehicle only (control group). For this, omigapil was given to dy^W/dy^W-mice at doses of 0.1 or 1 mg/kg body weight, respectively. The treatment regime was as described in example 1.
Newborn dy^W/dy^W mice were genotyped and randomly assigned to the vehicle or the 0.1 and 1 mg/kg omigapil groups. The individual body weights were assessed daily and the mean body weight were calculated every week. The percentage of mice above an average body weight of twelve grams is shown grouped according to age (between 6 and 11 weeks) for each treatment group. In total 27, 34 and 25 animals were included into the vehicle, the 0.1 and the 1 mg/kg omigapil group, respectively.

Chain of glyceraldehyde-3-phosphate dehydrogenase (GAPDH) (P04406 whole entry, species assumed): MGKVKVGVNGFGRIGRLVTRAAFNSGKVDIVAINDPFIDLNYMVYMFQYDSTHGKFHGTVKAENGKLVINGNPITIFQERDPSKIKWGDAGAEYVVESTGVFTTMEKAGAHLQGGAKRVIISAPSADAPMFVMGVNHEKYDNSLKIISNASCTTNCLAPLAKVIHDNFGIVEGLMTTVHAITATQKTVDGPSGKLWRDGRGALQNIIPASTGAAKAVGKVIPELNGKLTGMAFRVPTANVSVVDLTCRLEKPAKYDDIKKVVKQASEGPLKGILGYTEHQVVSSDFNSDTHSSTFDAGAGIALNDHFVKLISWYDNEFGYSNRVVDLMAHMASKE

Compound	binding to GAPDH [1]	reduction in apoptotic myofibres compared to vehicle ([2]; Triceps muscle) [%]	apoptotic myofibres in the Triceps muscle (TUNEL) ([2]; vehicle 1.1%) [%]	angle spanned by the spine (kyphosis, X-ray) [3] [°]	myofibres with muscle fiber diameters above 50 micrometers in the Triceps muscle [4] [%]	increase in locomotory activity compared to vehicle group ([5]; 0.1 mg/kg) [%]	locomotory activity in the 10-minute test period ([5]; 0.1 mg/kg) [seconds]	increase in locomotory activity compared to vehicle group ([5]; 1 mg/kg) [%]	locomotory activity in the 10-minute test period ([5]; 1 mg/kg) [seconds]	animals died within the first 80 days of age [6] [%]	percentage of mice that reached a body weight above 12 grams within the first 11 weeks of age ([7]; 0.1 mg/kg omigapil) [%]	percentage of mice that reached a body weight above 12 grams within the first 11 weeks of age ([7]; 1 mg/kg omigapil) [%]
C#CCN(C)CC1=Cc2ccccc2Oc2ccccc21 [compound of formula (I), N-(dibenz(b,f)oxepin-10-ylmethyl)-N-methyl-N-prop-2-ynylamine]	binds to glyceraldehyde-3-phosphate dehydrogenase (GAPDH)	–	–	–	–	–	–	–	–	–	–	–
N-(dibenz(b,f)oxepin-10-ylmethyl)-N-methyl-N-prop-2-ynylammonium maleate [omigapil]	–	35	0.7	89	15	39	330	26	301	8	25	43

— US7999002B2, “Use of N-(dibenz(b,f)oxepin-10-ylmethyl)-N-methyl-N-prop-2-ynylamine (omigapil) or a pharmaceutically acceptable addition salt thereof for the prophylaxis and/or treatment of muscular dystrophy” (Santhera Pharmaceuticals (Schweiz) AG, priority 2005, dated 2011)
